After the bases stand the sugars from the 5' end (letter, count) and the backbone: PS all phosphorothioate, else s phosphorothioate and o phosphodiester by linkage. Methylation of C is not given here. l = locked nucleic acid (LNA); d = 2'-deoxy (DNA)
Molecular target: SNHG14
Settings: ASO

Row | Sequence | target mRNA inhibition (Human Neuronal Cell, 7.5 µM) | target mRNA inhibition (Human Neuronal Cell, 0.2 µM) | target mRNA inhibition (Human Neuronal Cell, 1 µM) | also measured
1 | TCAGCTTTTAACCAGAGT (sugars l2 d13 l3, PS) | 79% |  |  | 
2 | TCAGCTTTTAACCAGAGTG (sugars l2 d14 l3, PS) | 76% |  |  | 
3 | TCAGCTTTTAACCAGAGTGG (sugars l2 d16 l2, PS) | 70% |  |  | 
4 | TCATACTTGCTTTAAT (sugars l4 d10 l2, PS) |  | 13% | 38% | 
5 | TCATTTCATATTACTAAC (sugars l4 d12 l2, PS) |  | 13% | 32% | 
6 | TCCAGCATATTATATA (sugars l4 d10 l2, PS) |  | 24% | 10% | 
7 | TCCTATATTCTCTTAAA (sugars l4 d11 l2, PS) |  | 47% | 66% | 
8 | TCTCTACAACAGTCCCA (sugars l2 d13 l2, PS) |  | 44% | 55% | 
9 | TCTGTATACACCATCCC (sugars l2 d1 l1 d11 l2, PS) | 56% |  |  | 
10 | TCTTACCAATAGTTACC (sugars l4 d11 l2, PS) |  | 45% | 55% | 
11 | TCTTACTCTGACTTTCC (sugars l2 d12 l3, PS) |  | 68% | 71% | 
12 | TCTTTCCATTTATTTCCAT (sugars l2 d14 l3, PS) | 43% |  |  | 
13 | TCTTTCCATTTATTTCCAT (sugars lddldldddddddldldll, PS) | 37% |  |  | 
14 | TCTTTCCATTTATTTCCATT (sugars l2 d13 l1 d1 l3, PS) | 42% |  |  | 
15 | TGAAAATCTCAACTACCAT (sugars l4 d12 l3, PS) | 49% |  |  | 
16 | TGAAAATCTCAACTACCAT (sugars lddddlddddddldlldll, PS) | 42% |  |  | 
17 | TGAAAATCTCAACTACCAT (sugars ldldldddddddldddlll, PS) | 50% |  |  | 
18 | TGAAAATCTCAACTACCAT (sugars llldllddddddlddddll, PS) | 55% |  |  | 
19 | TGAAACTATTACTCCT (sugars l3 d10 l3, PS) |  | 44% | 61% | 
20 | TGACATAACCATATAC (sugars l3 d10 l3, PS) |  | 20% | 30% | 
21 | TGCTACCATCATTACCT (sugars l2 d13 l2, PS) |  | 12% | 19% | 
22 | TGTACTTTCCTTTACCA (sugars l2 d13 l2, PS) |  | 33% | 59% | 
23 | TGTCATCTAACTTCTTA (sugars l4 d11 l2, PS) |  | 45% | 38% | 

Row | Sequence | target mRNA inhibition (Human Neuronal Cell, 7.5 µM) | target mRNA inhibition (Human Neuronal Cell, 0.2 µM) | target mRNA inhibition (Human Neuronal Cell, 1 µM) | also measured
24 | TGTTTATACCCTTTCCA (sugars l3 d12 l2, PS) |  | 35% | 50% | 
25 | TGTTTATACCCTTTCCAA (sugars lddddlddddddldldll, PS) | 47% |  |  | 
26 | TGTTTCCATCTACTATTA (sugars l1 d4 l1 d9 l3, PS) | 61% |  |  | 
27 | TGTTTCCATCTACTATTA (sugars l1 d4 l1 d10 l2, PS) | 60% |  |  | 
28 | TTACACTTAATTATACTT (sugars l3 d12 l3, PS) |  | 14% | 22% | 
29 | TTACACTTAATTATACTTCC (sugars l1 d5 l1 d9 l4, PS) | 61% |  |  | 
30 | TTACACTTAATTATACTTCC (sugars l3 d1 l1 d12 l3, PS) | 70% |  |  | 
31 | TTACACTTAATTATACTTCC (sugars ldldddlddddddddlddll, PS) | 64% |  |  | 
32 | TTACCAATAGTTACCT (sugars l3 d10 l3, PS) |  | 33% | 48% | 
33 | TTACCTACATCTCATAC (sugars l3 d11 l3, PS) |  | 0% | 5% | target mRNA inhibition (Human Neuronal Cell, 5 µM): 21%; target mRNA inhibition (Mouse Primary Neuronal Cell, 0.005 µM): 91.3%
34 | TTACTCTTAGCAACCT (sugars l4 d10 l2, PS) |  | 58% | 54% | 
35 | TTATACCCTTTCCAAT (sugars l2 d10 l4, PS) |  | 40% | 60% | 
36 | TTATACCTTTCTTTAACCCT (sugars ldddldddddddddddldll, PS) | 57% |  |  | 
37 | TTATAGCCATTCTATCT (sugars l1 d10 l2 d2 l2, PS) | 48% |  |  | 
38 | TTATAGCCATTCTATCT (sugars l2 d9 l1 d3 l2, PS) | 52% |  |  | 
39 | TTATAGCCATTCTATCT (sugars l3 d8 l1 d3 l2, PS) | 58% |  |  | 
40 | TTATAGCCATTCTATCT (sugars l3 d9 l1 d1 l3, PS) | 54% |  |  | 
41 | TTATAGCCATTCTATCT (sugars l4 d7 l1 d3 l2, PS) | 44% |  |  | 
42 | TTATAGCCATTCTATCT (sugars ldddlddddddldddll, PS) | 42% |  |  | 
43 | TTATAGCCATTCTATCT (sugars lddlddddddddlldll, PS) | 25% |  |  | 
44 | TTATAGCCATTCTATCT (sugars llldlddddddldddll, PS) | 52% |  |  | 
45 | TTATTAACCACCTTAA (sugars l3 d10 l3, PS) |  | 21% | 49% | 
46 | TTCACCTAATAGCACCA (sugars l2 d11 l4, PS) |  | 54% | 64% | 

Row | Sequence | target mRNA inhibition (Human Neuronal Cell, 7.5 µM) | target mRNA inhibition (Human Neuronal Cell, 0.2 µM) | target mRNA inhibition (Human Neuronal Cell, 1 µM) | also measured
47 | TTCCATTTATTTCCATTTAT (sugars ldldllddddddddldddll, PS) | 59% |  |  | 
48 | TTCCCTTTGATAACAT (sugars l4 d10 l2, PS) |  | 9% | 34% | 
49 | TTCCTCTGCTTATAACT (sugars l3 d12 l2, PS) |  | 50% | 61% | 
50 | TTCCTTTCATTAACATTT (sugars l4 d12 l2, PS) |  | 37% | 55% | 
51 | TTCTACTATACTTTCC (sugars l4 d10 l2, PS) |  | 55% | 69% | 
52 | TTCTACTATACTTTCCTCT (sugars ldddddddddddlddldll, PS) | 54% |  |  | 
53 | TTCTACTATACTTTCCTCT (sugars ldddldddddddldlddll, PS) | 58% |  |  | 
54 | TTCTGTATACACCATCC (sugars l1 d1 l1 d11 l3, PS) | 58% |  |  | 
55 | TTCTGTATACACCATCC (sugars l1 d3 l1 d9 l3, PS) | 64% |  |  | 
56 | TTCTGTATACACCATCC (sugars l1 d10 l1 d3 l2, PS) | 51% |  |  | 
57 | TTCTGTATACACCATCC (sugars l1 d13 l3, PS) | 59% |  |  | 
58 | TTCTGTATACACCATCC (sugars l2 d11 l1 d1 l2, PS) | 56% |  |  | 
59 | TTCTGTATACACCATCCC (sugars l1 d12 l1 d2 l2, PS) | 53% |  |  | 
60 | TTCTGTATACACCATCCC (sugars ldddlddddddddlddll, PS) | 54% |  |  | 
61 | TTCTTAGTCACACACA (sugars l4 d10 l2, PS) |  | -3% | -43% | 
62 | TTGATTCAATTCCCTTA (sugars ldllddddddddlddll, PS) | 62% |  |  | 
63 | TTGATTCAATTCCCTTA (sugars lldldddddddldldll, PS) | 59% |  |  | 
64 | TTGTCTCTAATCCTATT (sugars l2 d11 l4, PS) |  | 24% | 52% | 
65 | TTTAACCTTGCTTATA (sugars l2 d10 l4, PS) |  | 23% | 25% | 
66 | TTTACACTTAATTATACTTC (sugars ldddlldddddddllddlll, PS) | 60% |  |  | 
67 | TTTACACTTAATTATACTTC (sugars lllddldddddddlldllll, PS) | 15% |  |  | 
68 | TTTACATTCCCATCATC (sugars l2 d11 l4, PS) |  | 57% | 66% | 
69 | TTTATACCCTTTCCAA (sugars l2 d10 l4, PS) |  | 55% | 63% | 

Row | Sequence | target mRNA inhibition (Human Neuronal Cell, 7.5 µM) | target mRNA inhibition (Human Neuronal Cell, 0.2 µM) | target mRNA inhibition (Human Neuronal Cell, 1 µM) | also measured
70 | TTTATACCTTTCTTTAACCC (sugars l1 d15 l1 d1 l2, PS) | 36% |  |  | 
71 | TTTATACCTTTCTTTAACCC (sugars lddddddddddddldlddll, PS) | 52% |  |  | 
72 | TTTATACCTTTCTTTAACCC (sugars lddddlddddddddddldll, PS) | 63% |  |  | 
73 | TTTATCAATATCTTCTCA (sugars l1 d2 l1 d10 l4, PS) | 53% |  |  | 
74 | TTTATCAATATCTTCTCA (sugars lddlllddddddlddlll, PS) | 60% |  |  | 
75 | TTTATCAATATCTTCTCAC (sugars l1 d4 l1 d9 l4, PS) | 52% |  |  | 
76 | TTTATCAATATCTTCTCACT (sugars lddlddldddddddddldll, PS) | 58% |  |  | 
77 | TTTATCTATTTAATTTACA (sugars l4 d13 l2, PS) |  | 7% | 6% | 
78 | TTTATTTCCATTTATTTTC (sugars l5 d7 l1 d3 l3, PS) | 55% |  |  | 
79 | TTTATTTCCATTTATTTTC (sugars llddlldddddddldllll, PS) | 66% |  |  | 
80 | TTTCCAATGAATCTAT (sugars l2 d10 l4, PS) |  | 21% | 36% | 
81 | TTTCCATCTACTATTA (sugars l4 d10 l2, PS) |  | 60% | 67% | 
82 | TTTCCATTTATTTCCATTTA (sugars lddddldddddddddlddll, PS) | 44% |  |  | 
83 | TTTCCATTTATTTCCATTTA (sugars lddddldddddddlddldll, PS) | 58% |  |  | 
84 | TTTGACATTCCATCTC (sugars l3 d10 l3, PS) |  | 56% | 59% | 
85 | TTTTAACCAGAGTGGCATC (sugars l4 d13 l2, PS) | 45% |  |  | 
86 | TTTTTATACCTTTCTTTAAC (sugars l1 d12 l1 d2 l4, PS) | 43% |  |  | 
87 | TTTTTATACCTTTCTTTAAC (sugars l2 d12 l3 d1 l2, PS) | 62% |  |  | 
88 | TTTTTATACCTTTCTTTAAC (sugars lllldddddddddldlddll, PS) | 69% |  |  | 
89 | TTTTTTCTTACTATCTTCAA (sugars l1 d4 l1 d10 l4, PS) | 55% |  |  | 
90 | TTTTTTCTTACTATCTTCAA (sugars ldllldldddddddddldll, PS) | 58% |  |  | 

Source: the OligoGym collection
